Results: US10154667B2, “Broadleaf crop control with 6-arylpicoline carboxylic acids, 2-arylpyrimidine carboxylic acids, or salts or esters thereof” (Dow AgroSciences LLC, priority 2013, dated 2018)
Where two headings read alike, the source gives them in different places.

How the values were obtained:
Assay type in all cases: in vivo, Glycine max
[1] = system: Maverick GLXMA (conventional soybean); test: Greenhouse evaluation of broadleaf volunteer crop control, Maverick soybean; details: for pest or weed control at 1.1 g/ha / pest or weed control at 2.2 g/ha / pest or weed control at 4.4 g/ha / pest or weed control at 8.75 g/ha / pest or weed control at 17.5 g/ha: Glycine max, 504 h, read-out: Average Percent Crop Control after Treatment, Maverick GLXMA
Protocol: (§1) Test plants were grown in METRO-MIX® 360 (SunGro Horticulture, Bellevue, Wash.) in 132.7 square centimeters (cm^2) plastic pots for 7-21 days in a greenhouse with an approximate 15 hour (h) photoperiod which was maintained at about 23-29° C. during the day and 22-28° C. during the night. Plants were grown to the 2 to 3 leaf stage prior to applications. Both conventional soybean crops varieties, Maverick and Resnick, and herbicide resistant (HT) varieties AAD12, AAD1, and ROUNDUP® ready soybean crops were treated.
(§2) A weighed amount, determined by the highest rate to be tested, of each test compound was placed in a 25 milliliter (mL) glass vial and was dissolved in 4 mL of a 97:3 v/v (volume/volume) mixture of acetone and dimethyl sulfoxide (DMSO), which will be referred to as General Purpose Solvent (GPS), to obtain concentrated stock solutions. […] The concentrated stock solutions obtained were diluted with 20 mL of an aqueous mixture containing water, GPS, isopropyl alcohol, ATPLUS® 411F crop oil concentrate, and TRITON® X-155 surfactant in a 46:42:12:1.0:0.02 v/v ratio to obtain spray solutions containing the highest application rates. Additional application rates were obtained by serial dilution of 12 mL of the high rate solution into a solution containing 2 mL of 97:3 v/v (volume/volume) mixture of acetone and dimethyl sulfoxide (DMSO) and 10 mL of an aqueous mixture containing water, GPS, isopropyl alcohol, ATPLUS® 411F crop oil concentrate, and TRITON® X-155 surfactant in a 46:42:12:1.0:0.02 v/v ratio to obtain 1/2X, 1/4X, 1/8X and 1/16X rates of the high rate (X). Compound requirements are based upon a 12 mL application volume at a rate of 187 L/ha. Formulated compounds were applied to the plant material with an overhead Mandel track sprayer equipped with 8002E nozzles calibrated to deliver 187 L/ha over an application area of 0.503 square meters (m^2) at a spray height of 18 inches (43 cm) above the average plant canopy height. Control plants were sprayed in the same manner with the solvent blank. The treated plants and control plants were placed in a greenhouse as described above and watered by sub-irrigation to prevent wash-off of the test compounds. After 21 days, the condition of the test plants as compared with that of the control plants was determined visually and scored on a scale of 0 to 100 percent where 0 corresponds to no injury and 100 corresponds to complete kill, and results are listed in Table 1 along with active ingredients and their respective formulations. Each score in Table 1 represents an average obtained from results of three representative experiments.
(§3) Additional formulations with different 6-arylpicolinates were tested in the greenhouse on Maverick and RoundUp-ready soybean crops using the procedure described above. Each score in Table 2 represents an average obtained from results of three representative experiments.

[2] = system: RoundUp Ready GLXMA (HT variety soybean); test: Greenhouse evaluation of broadleaf volunteer crop control, RoundUp ready soybean; details: for pest or weed control at 1.1 g/ha / pest or weed control at 2.2 g/ha / pest or weed control at 4.4 g/ha / pest or weed control at 8.75 g/ha / pest or weed control at 17.5 g/ha: Glycine max, 504 h, read-out: Average Percent Crop Control after Treatment, RoundUp Ready GLXMA
Protocol: as §1, §2, §3

[3] = system: ROUNDUP READY soybeans (GLXMA); test: Field evaluation with various herbicides, 46 days after treatment; details: for % Crop Control: 46 Days After Treatment
Description: (§4) The average percent visual control of ROUNDUP READY® soybeans (GLXMA) 46 days after treatment with various herbicides with standard formulation in comparison with compound of Formula (IV) at specified rates are provided in Table 6 below. The data was the result of conducting factorial replicated field trials (4 trials) by applying the compositions at a spray pressure of 300 kPa and a spray volume of 200 L/ha. The treated plots and control plots were visually rated blind at the specified dates after application. Ratings were based on a scale of 0-100%, as discussed above, wherein 0% indicates complete growth of the undesired vegetation and 100% indicates complete prevention/eradication of the undesired vegetation.

[4] = system: ROUNDUP READY soybeans (GLXMA); test: Field evaluation with various herbicides, 30 days after treatment; details: for % Crop Control: 30 Days After Treatment
Description: as §4, with “The” for “The average percent visual control of ROUNDUP READY® soybeans (GLXMA) 46 days after treatment with various herbicides with standard formulation in comparison with compound of Formula (IV) at specified rates are provided in Table 6 below. The”, “(3” for “(4”

[5] = 1.1 g ae/ha, greenhouse, 2 to 3 leaf stage, after 21 days, 0 no injury, 100 complete kill
[6] = 2.2 g ae/ha, greenhouse, 2 to 3 leaf stage, after 21 days, 0 no injury, 100 complete kill
[7] = 4.4 g ae/ha, greenhouse, 2 to 3 leaf stage, after 21 days, 0 no injury, 100 complete kill
[8] = 8.75 g ae/ha, greenhouse, 2 to 3 leaf stage, after 21 days, 0 no injury, 100 complete kill
[9] = 17.5 g ae/ha, greenhouse, 2 to 3 leaf stage, after 21 days, 0 no injury, 100 complete kill

| Structure (SMILES) | pest or weed control at 1.1 g/ha [1, 5] [%] | pest or weed control at 2.2 g/ha [1, 6] [%] | pest or weed control at 4.4 g/ha [1, 7] [%] | pest or weed control at 8.75 g/ha [1, 8] [%] | pest or weed control at 17.5 g/ha [1, 9] [%] | pest or weed control at 1.1 g/ha [2, 5] [%] | pest or weed control at 2.2 g/ha [2, 6] [%] | pest or weed control at 4.4 g/ha [2, 7] [%] | pest or weed control at 8.75 g/ha [2, 8] [%] | pest or weed control at 17.5 g/ha [2, 9] [%] | other results |
| --- | --- | --- | --- | --- | --- | --- | --- | --- | --- | --- | --- |
| COc1c(Cl)ccc(-c2nc(C(=O)OCc3ccccc3)c(Cl)c(N)c2F)c1F | – | – | – | – | – | – | – | – | – | – | pest or weed control at 1.1 g/ha [1]: 100%; pest or weed control at 2.2 g/ha [1]: 100%; pest or weed control at 4.4 g/ha [1]: 100%; pest or weed control at 8.75 g/ha [1]: 100%; pest or weed control at 17.5 g/ha [1]: 100%; pest or weed control at 1.1 g/ha [2]: 100%; pest or weed control at 2.2 g/ha [2]: 100%; pest or weed control at 4.4 g/ha [2]: 100%; pest or weed control at 8.75 g/ha [2]: 100%; pest or weed control at 17.5 g/ha [2]: 100% |
| Nc1cc(-c2ccc(Cl)cc2F)nc(C(=O)O)c1Cl | 100 | 100 | 100 | 100 | 100 | 100 | 100 | 100 | 100 | 100 | – |
| Cc1c(Cl)ccc(-c2cc(N)c(Cl)c(C(=O)O)n2)c1F | 53 | 82 | 99 | 100 | 100 | 57 | 80 | 98 | 100 | 100 | – |
| Cc1ccc(-c2cc(N)c(Cl)c(C(=O)O)n2)cc1 | 100 | 100 | 100 | 100 | 100 | 90 | 100 | 100 | 100 | 100 | – |
| Nc1c(F)c(-c2ccc3c(c2)OCO3)nc(C(=O)O)c1Cl | 27 | 42 | 58 | 95 | 100 | 32 | 45 | 73 | 92 | 98 | – |
| COC(=O)c1nc(-c2ccc(Cl)cc2OC)cc(N)c1Cl | 98 | 100 | 100 | 100 | 100 | 95 | 99 | 100 | 100 | 100 | – |
| CNC.O=C(O)COc1ccc(Cl)cc1Cl [2,4-D-dma] | – | – | – | – | – | – | – | – | – | – | % Crop Control ([3]; 1300 g ai/Ha): 97.3% |
| CC(O)CN(CC(C)O)CC(C)O.Nc1cc(Cl)nc(C(=O)O)c1Cl (stereo not shown) [Aminopyralid TIPA] | – | – | – | – | – | – | – | – | – | – | % Crop Control ([4]; 1.25 g ai/Ha): 60% |
| CCNc1nc(Cl)nc(NC(C)C)n1 [Atrazine] | – | – | – | – | – | – | – | – | – | – | % Crop Control ([4]; 1500 g ai/Ha + 1% J'Oil): 86.7%; % Crop Control ([4]; 1500 g ai/Ha): 75% |
| O=C(O)c1nc(Cl)ccc1Cl [Clopyralid] | – | – | – | – | – | – | – | – | – | – | % Crop Control ([3]; 54 g ai/Ha): 93.8% |
| C#CCN1C(=O)COc2cc(F)c(N3C(=O)C4=C(CCCC4)C3=O)cc21 [Flumioxazin] | – | – | – | – | – | – | – | – | – | – | % Crop Control ([3]; 25 g ai/Ha): 0% |
| Nc1c(Cl)c(F)nc(OCC(=O)O)c1Cl [Fluroxypyr] | – | – | – | – | – | – | – | – | – | – | % Crop Control ([3]; 200 g ai/Ha): 100% |
| COc1c(Cl)ccc(-c2nc(C(=O)O)c(Cl)c(N)c2F)c1F [Formula (III)] | – | – | – | – | – | – | – | – | – | – | % Crop Control ([4]; 18 g ai/Ha): 100%; herbicidal activity in genetically engineered crops as compared to other commercially known herbicides ([4]; RoundUp Ready soybeans): comparable or superior |
| COc1c(Cl)ccc(-c2cc(N)c(Cl)c(C(=O)O)n2)c1F [Formula (IV)] | – | – | – | – | – | – | – | – | – | – | % Crop Control ([3]; 17 g ai/Ha): 93%; herbicidal activity in genetically engineered crops as compared to other commercially known herbicides ([3]; RoundUp Ready soybeans): comparable or superior |
| CCOc1cc(Oc2ccc(C(F)(F)F)cc2Cl)ccc1[N+](=O)[O-] [Oxyfluorfen] | – | – | – | – | – | – | – | – | – | – | % Crop Control ([4]; 72 g ai/Ha): 16.7% |
| COc1cnc(OC)n2nc(NS(=O)(=O)c3c(OCC(F)F)cccc3C(F)(F)F)nc12 [Penoxsulam] | – | – | – | – | – | – | – | – | – | – | % Crop Control ([4]; 18 g ai/Ha): 87.3% |
| COc1c(Cl)ccc(-c2nc(C(=O)O)c(Cl)c(N)c2F)c1F [drawing 13] | – | – | – | – | – | 100 | – | – | – | – | Average Percent Crop Control after Treatment, Maverick GLXMA [1, 5]: 100%; Average Percent Crop Control after Treatment, Maverick GLXMA [1, 6]: 100%; Average Percent Crop Control after Treatment, Maverick GLXMA [1, 7]: 100%; Average Percent Crop Control after Treatment, Maverick GLXMA [1, 8]: 100%; Average Percent Crop Control after Treatment, Maverick GLXMA [1, 9]: 100%; Average Percent Crop Control after Treatment, RoundUp Ready GLXMA [2, 6]: 100%; Average Percent Crop Control after Treatment, RoundUp Ready GLXMA [2, 7]: 100%; Average Percent Crop Control after Treatment, RoundUp Ready GLXMA [2, 8]: 100%; Average Percent Crop Control after Treatment, RoundUp Ready GLXMA [2, 9]: 100% |
| COc1c(Cl)ccc(-c2cc(N)c(Cl)c(C(=O)O)n2)c1F [drawing 15] | 100 | 100 | 100 | 100 | 100 | 100 | 100 | 100 | 100 | 100 | – |
| COc1ncc(F)c2nc(S(=O)(=O)Nc3c(F)cccc3F)nn12 [florasulam] | – | – | – | – | – | – | – | – | – | – | % Crop Control ([4]; 5 g ai/Ha + 1% J'Oil): 63.3% |
